Reference: US7012093B2, “Multiple fluorescent natural dye compound from a marine organism and method of use thereof” (Council of Scientific & Industrial Research, priority 2001, dated 2006)
Entries after “also recorded” stand apart in the source; their conditions may differ.

Key:
[1] = tested on: E. coli (wild type); test: Anti-microbial test (zone of inhibition, filter paper disk on seeded agar); assay type: cell-based; conditions: 10 mg/ml of the sample soaked in filter paper disks, 37° C., 24 hours
Protocol: In yet another embodiment, anti-microbial test of the compound cum dye is done. […] As the marine dye is, a phenolic compound and phenolic compounds are generally having Anti-microbial activity, the anti-microbial assay was performed with this compound and the zone of inhibition was observed. E. coli (wild type) culture was grown overnight in MacConkey's broth 50 ml in a conical flask (100 ml). Antibiotic assay agar medium was prepared and sterilized. It was then brought to a temperature of 50 degree centigrade and 1 ml of E. coli (wild type) culture was added to it. The culture was mixed with antibiotic assay agar medium and was allowed to solidify. 10 mg/ml of the sample was prepared and soaked in filter paper disks. It was then placed upon the said antibiotic assay agar medium seeded with E. coli. It was then incubated at 37° C. in an incubator for 24 hours.

[2] = tested on: ticks/fleas of dogs; test: Veterinary remedy: killing ticks/fleas of dogs; assay type: in vivo, ticks and fleas
Description: In yet another embodiment, the utility of the dye as a Veterinary remedy for ticks and fleas of pets is seen. The extract is used as veterinary remedy for killing ticks/fleas of dogs. 5×10^−6 concentration of dye in 1:200 dilutions killed ticks and fleas in less than 20 seconds. The extract was used as veterinary remedy for killing ticks/fleas of dogs. 5×10^−8 concentration of the purified compound cum dye killed ticks and fleas in less than 20 seconds.

[3] = tested on: ants; test: Pesticidal effect (filter paper soaked in the dye); assay type: in vivo; conditions: filter paper soaked in the dye left on the workbench; next day full of dead ants
Description: In yet another embodiment, the pesticidal effect of the compound cum dye is noticed. […] The filter paper soaked in the dye was left unattended on the workbench. Next day it was noticed full of dead ants. […] The filter paper soaked in the dye was left unattended on the workbench. Next day it was noticed full of dead ants.

[4] = Solubility of the compound; assay type: physicochemical; conditions: for solubility in organic solvents: ethanol, methanol, acetone
[5] = Stability check of the dye (temperature, shelf life, light); assay type: physicochemical
Protocol: (§1) The pure hydrogen form of the compound is having the pH of 2.8. The salt form of the compound is stable up to 300° C. without the change of physical and chemical characters. The compound in aqueous solution in a very diluted form (5×10^−6 concentration) is pale yellow in color with the naked eye and the concentrated solution is reddish brown in color.
The compound retained its stability for about a year without any contamination or chemical decay.

[6] = Stability of the compound cum dye at the sub zero temperatures; assay type: physicochemical
Description: In yet another embodiment stability of the compound cum Dye at the sub Zero temperatures is seen. The compound in its diluted form 5×10^−6 was taken in a microfuge tube and kept at −20 degree centigrade and seen in the frozen state under UV light.
The compound in its diluted form 5×10^−6 was taken in a microfuge tube and kept at −20 degree centigrade and seen in the frozen state under UV light.

[7] = pH of the compound and pH sensitivity of emissions; assay type: physicochemical
Protocol: as §1
The dye has a pH of 2.8 and their spectral emissions are not affected at different pH range i.e. from pH 2.8–8.0.

[8] = Biosurfactant nature (shaking of solutions); assay type: physicochemical; conditions: 0.001 mg–0.01 mg per ml solutions

Phenolic sulphated silicated polysaccharide [PSSP-1]
zone of inhibition ([1]; listed as compound cum dye): zone of inhibition is observed
zone of inhibition ([1]; listed as dye): Zone of inhibition surrounding the filter disk was observed
time to kill ticks and fleas ([2]; 5×10^−6 concentration of dye in 1:200 dilutions): less than 20 seconds
time to kill ticks and fleas ([2]; 5×10^−8 concentration of the purified compound cum dye): less than 20 seconds
toxicity to insects [3]: toxic to insects
solubility in organic solvents [4]: insoluble in the organic solvents including ethanol, methanol and acetone
solubility in organic solvents ([4]; listed as dye): insoluble in the organic solvents like ethanol, methanol and acetone
solubility in water [4]: soluble in water
solubility in water ([4]; listed as dye): more than the solubility characters of Fluorescein; also recorded: highly water-soluble
photolysis after light treatment ([5]; exposure to light, listed as dye): does not undergo photolysis after exposure to light; also recorded: did not undergo photolysis after light treatment
temperature up to which the dye is stable (no alteration of the spectral property) ([5]; heating, fluorescent spectral properties unchanged): up to 300 degree Centigrade
duration of retained stability without contamination or chemical decay ([5]; room temperature): about a year
persistence of fluorescence at the room temperature ([5]; room temperature): at least 1 year
duration of retained stability without contamination or chemical decay ([5]; room temperature, listed as dye): above a year
fluorescence in the frozen state ([6]; diluted form 5×10^−6, −20 degree centigrade, under UV light): persisted without any deterioration
fluorescence after freezing in liquid nitrogen ([6]; frozen in the liquid nitrogen): remained unaffected
pH [7]: 2.8
effect of pH on spectral emissions ([7]; pH 2.8–8.0): not affected
frothing on shaking [8]: frothing was seen
frothing on shaking ([8]; listed as dye): frothing is seen
